According to US8895756B2, “Bendamustine pharmaceutical compositions” (priority 2005, dated 2014):

Experiment: HPLC stability of bendamustine (15 mg/mL, mannitol 25.5 mg/mL) in alcohol/water solutions at 5° C.
Format: physicochemical
Conditions: for HP1 (%) / Purity (% Area) / Dimer (%): 5° C.
Experimental: A sample of each formulation was analyzed by HPLC after 0, 3, 6 and 24 hours when stored at 5° C.

[1] = 20% Butanol (2 layers, vortexed), 0 hours
[2] = 20% Butanol (2 layers, vortexed), 3 hours
[3] = 20% Butanol (2 layers, vortexed), 6 hours
[4] = 20% Butanol (2 layers, vortexed), 24 hours
[5] = 30% Butanol (2 layers, vortexed), 0 hours
[6] = 30% Butanol (2 layers, vortexed), 3 hours
[7] = 30% Butanol (2 layers, vortexed), 6 hours
[8] = 30% Butanol (2 layers, vortexed), 24 hours

Cl.Cn1c(CCCC(=O)O)nc2cc(N(CCCl)CCCl)ccc21 [bendamustine, 4-{5-[Bis(2-chloroethyl)amino]-1-methyl-2-benzimidazolyl}butyric acid]
HP1 (%) (10% n-Propanol, 6 hours): 0.70%
Purity (% Area) (10% n-Propanol, 6 hours): 98.92 % Area
Dimer (%) (10% n-Propanol, 24 hours): 0.28%
HP1 (%) (10% n-Propanol, 24 hours): 1.83%
Purity (% Area) (10% n-Propanol, 24 hours): 97.67 % Area
Dimer (%) [1]: 0.10%
HP1 (%) [1]: 0.23%
Purity (% Area) [1]: 99.54 % Area
Dimer (%) [2]: 0.11%
HP1 (%) [2]: 0.31%
Purity (% Area) [2]: 99.45 % Area
Dimer (%) [3]: 0.11%
HP1 (%) [3]: 0.40%
Purity (% Area) [3]: 99.30 % Area
Dimer (%) [4]: 0.14%
HP1 (%) [4]: 0.91%
Purity (% Area) [4]: 98.81 % Area
Dimer (%) (20% Ethanol, 0 hours): 0.10%
HP1 (%) (20% Ethanol, 0 hours): 0.22%
Purity (% Area) (20% Ethanol, 0 hours): 99.54 % Area
Dimer (%) (20% Ethanol, 3 hours): 0.11%
HP1 (%) (20% Ethanol, 3 hours): 0.30%
Purity (% Area) (20% Ethanol, 3 hours): 99.45 % Area
Dimer (%) (20% Ethanol, 6 hours): 0.11%
HP1 (%) (20% Ethanol, 6 hours): 0.39%
Purity (% Area) (20% Ethanol, 6 hours): 99.36 % Area
Dimer (%) (20% Ethanol, 24 hours): 0.15%
HP1 (%) (20% Ethanol, 24 hours): 0.96%
Purity (% Area) (20% Ethanol, 24 hours): 98.61 % Area
Dimer (%) (20% Iso-propanol, 0 hours): 0.11%
HP1 (%) (20% Iso-propanol, 0 hours): 0.21%
Purity (% Area) (20% Iso-propanol, 0 hours): 99.49 % Area
Dimer (%) (20% Iso-propanol, 3 hours): 0.12%
HP1 (%) (20% Iso-propanol, 3 hours): 0.31%
Purity (% Area) (20% Iso-propanol, 3 hours): 99.39 % Area
Dimer (%) (20% Iso-propanol, 6 hours): 0.13%
HP1 (%) (20% Iso-propanol, 6 hours): 0.42%
Purity (% Area) (20% Iso-propanol, 6 hours): 99.22 % Area
Dimer (%) (20% Iso-propanol, 24 hours): 0.17%
HP1 (%) (20% Iso-propanol, 24 hours): 1.04%
Purity (% Area) (20% Iso-propanol, 24 hours): 98.61 % Area
Dimer (%) (20% Methanol, 0 hours): 0.11%
HP1 (%) (20% Methanol, 0 hours): 0.22%
Purity (% Area) (20% Methanol, 0 hours): 99.56 % Area
Dimer (%) (20% Methanol, 3 hours): 0.11%
HP1 (%) (20% Methanol, 3 hours): 0.38%
Purity (% Area) (20% Methanol, 3 hours): 99.31 % Area
Dimer (%) (20% Methanol, 6 hours): 0.12%
HP1 (%) (20% Methanol, 6 hours): 0.50%
Purity (% Area) (20% Methanol, 6 hours): 98.99 % Area
Dimer (%) (20% Methanol, 24 hours): 0.16%
HP1 (%) (20% Methanol, 24 hours): 1.15%
Purity (% Area) (20% Methanol, 24 hours): 98.31 % Area
Dimer (%) (20% Tert-butanol, 0 hours): 0.11%
HP1 (%) (20% Tert-butanol, 0 hours): 0.17%
Purity (% Area) (20% Tert-butanol, 0 hours): 99.59 % Area
Dimer (%) (20% Tert-butanol, 3 hours): 0.11%
HP1 (%) (20% Tert-butanol, 3 hours): 0.29%
Purity (% Area) (20% Tert-butanol, 3 hours): 99.48 % Area
Dimer (%) (20% Tert-butanol, 6 hours): 0.12%
HP1 (%) (20% Tert-butanol, 6 hours): 0.40%
Purity (% Area) (20% Tert-butanol, 6 hours): 99.35 % Area
Dimer (%) (20% Tert-butanol, 24 hours): 0.20%
HP1 (%) (20% Tert-butanol, 24 hours): 1.27%
Purity (% Area) (20% Tert-butanol, 24 hours): 98.35 % Area
Dimer (%) (20% n-Propanol, 0 hours): 0.13%
HP1 (%) (20% n-Propanol, 0 hours): 0.33%
Purity (% Area) (20% n-Propanol, 0 hours): 99.45 % Area
Dimer (%) (20% n-Propanol, 3 hours): 0.13%
HP1 (%) (20% n-Propanol, 3 hours): 0.26%
Purity (% Area) (20% n-Propanol, 3 hours): 99.42 % Area
Dimer (%) (20% n-Propanol, 6 hours): 0.14%
HP1 (%) (20% n-Propanol, 6 hours): 0.39%
Purity (% Area) (20% n-Propanol, 6 hours): 99.29 % Area
Dimer (%) (20% n-Propanol, 24 hours): 0.24%
HP1 (%) (20% n-Propanol, 24 hours): 0.97%
Purity (% Area) (20% n-Propanol, 24 hours): 98.60 % Area
HP1 (30% (v/v) TBA, stored at 5° C. for up to 24 hours): about 0.4%
Dimer (%) [5]: 0.10%
HP1 (%) [5]: 0.24%
Purity (% Area) [5]: 99.55 % Area
Dimer (%) [6]: 0.10%
HP1 (%) [6]: 0.29%
Purity (% Area) [6]: 99.40 % Area
Dimer (%) [7]: 0.11%
HP1 (%) [7]: 0.37%
Dimer (%) [8]: 0.12%
HP1 (%) [8]: 0.74%
Dimer (%) (30% Ethanol, 0 hours): 0.10%
HP1 (%) (30% Ethanol, 0 hours): 0.15%
Purity (% Area) (30% Ethanol, 0 hours): 99.62 % Area
Dimer (%) (30% Ethanol, 3 hours): 0.11%
HP1 (%) (30% Ethanol, 3 hours): 0.21%
Purity (% Area) (30% Ethanol, 3 hours): 99.56 % Area
Dimer (%) (30% Ethanol, 6 hours): 0.12%
HP1 (%) (30% Ethanol, 6 hours): 0.24%
Purity (% Area) (30% Ethanol, 6 hours): 99.52 % Area
Dimer (%) (30% Ethanol, 24 hours): 0.12%
HP1 (%) (30% Ethanol, 24 hours): 0.45%
Purity (% Area) (30% Ethanol, 24 hours): 99.21 % Area
Dimer (%) (30% Iso-propanol, 0 hours): 0.10%
HP1 (%) (30% Iso-propanol, 0 hours): 0.15%
Purity (% Area) (30% Iso-propanol, 0 hours): 99.56 % Area
Dimer (%) (30% Iso-propanol, 3 hours): 0.12%
HP1 (%) (30% Iso-propanol, 3 hours): 0.20%
Purity (% Area) (30% Iso-propanol, 3 hours): 99.47 % Area
Dimer (%) (30% Iso-propanol, 6 hours): 0.11%
HP1 (%) (30% Iso-propanol, 6 hours): 0.24%
Purity (% Area) (30% Iso-propanol, 6 hours): 99.40 % Area
Dimer (%) (30% Iso-propanol, 24 hours): 0.14%
HP1 (%) (30% Iso-propanol, 24 hours): 0.52%
Purity (% Area) (30% Iso-propanol, 24 hours): 99.15 % Area
Dimer (%) (30% Methanol, 0 hours): 0.10%
HP1 (%) (30% Methanol, 0 hours): 0.18%
Purity (% Area) (30% Methanol, 0 hours): 99.59 % Area
Dimer (%) (30% Methanol, 3 hours): 0.11%
HP1 (%) (30% Methanol, 3 hours): 0.27%
Purity (% Area) (30% Methanol, 3 hours): 99.43 % Area
Dimer (%) (30% Methanol, 6 hours): 0.11%
HP1 (%) (30% Methanol, 6 hours): 0.34%
Purity (% Area) (30% Methanol, 6 hours): 99.25 % Area
Dimer (%) (30% Methanol, 24 hours): 0.13%
HP1 (%) (30% Methanol, 24 hours): 0.76%
Purity (% Area) (30% Methanol, 24 hours): 98.65 % Area
Dimer (%) (30% Tert-butanol, 0 hours): 0.10%
HP1 (%) (30% Tert-butanol, 0 hours): 0.13%
Purity (% Area) (30% Tert-butanol, 0 hours): 99.63 % Area
Dimer (%) (30% Tert-butanol, 3 hours): 0.10%
HP1 (%) (30% Tert-butanol, 3 hours): 0.16%
Purity (% Area) (30% Tert-butanol, 3 hours): 99.60 % Area
Dimer (%) (30% Tert-butanol, 6 hours): 0.11%
HP1 (%) (30% Tert-butanol, 6 hours): 0.18%
Purity (% Area) (30% Tert-butanol, 6 hours): 99.58 % Area
Dimer (%) (30% Tert-butanol, 24 hours): 0.12%
HP1 (%) (30% Tert-butanol, 24 hours): 0.34%
Purity (% Area) (30% Tert-butanol, 24 hours): 99.42 % Area
Dimer (%) (30% n-Propanol, 0 hours): 0.13%
HP1 (%) (30% n-Propanol, 0 hours): 0.15%
Purity (% Area) (30% n-Propanol, 0 hours): 99.53 % Area
Dimer (%) (30% n-Propanol, 3 hours): 0.15%
HP1 (%) (30% n-Propanol, 3 hours): 0.15%
Purity (% Area) (30% n-Propanol, 3 hours): 99.51 % Area
Dimer (%) (30% n-Propanol, 6 hours): 0.11%
HP1 (%) (30% n-Propanol, 6 hours): 0.20%
Purity (% Area) (30% n-Propanol, 6 hours): 99.44 % Area
Dimer (%) (30% n-Propanol, 24 hours): 0.17%
HP1 (%) (30% n-Propanol, 24 hours): 0.36%
Purity (% Area) (30% n-Propanol, 24 hours): 99.27 % Area
